Consider seven molecules from patent US20080262066A1, “Azole Derivatives as Cannabinoid CB1 Receptor Antagonists” (Green Cross Corporation, priority 2007, published 2008).

The target of this assay is T1, rat CB-1 receptor (Rattus norvegicus, UniProt P20272).
T1 construct: The tissue obtained from the brain of SD rats was homogenized; from tissue; host or cells: SD rat brain (membrane pellet of homogenate)
Nature of the assay: rat CB-1 receptor binding protocol with [3H]CP-55940 on SD rat brain tissue. The conditions noted are these: [3H]CP-55940 displacement, SD rat brain homogenate, 30° C., 60 min; read-out: IC50 (binding affinity for CB1 receptor).

One may read the IC50 as the concentration that gives 50% inhibition.

T1 sequence (P20272 whole entry): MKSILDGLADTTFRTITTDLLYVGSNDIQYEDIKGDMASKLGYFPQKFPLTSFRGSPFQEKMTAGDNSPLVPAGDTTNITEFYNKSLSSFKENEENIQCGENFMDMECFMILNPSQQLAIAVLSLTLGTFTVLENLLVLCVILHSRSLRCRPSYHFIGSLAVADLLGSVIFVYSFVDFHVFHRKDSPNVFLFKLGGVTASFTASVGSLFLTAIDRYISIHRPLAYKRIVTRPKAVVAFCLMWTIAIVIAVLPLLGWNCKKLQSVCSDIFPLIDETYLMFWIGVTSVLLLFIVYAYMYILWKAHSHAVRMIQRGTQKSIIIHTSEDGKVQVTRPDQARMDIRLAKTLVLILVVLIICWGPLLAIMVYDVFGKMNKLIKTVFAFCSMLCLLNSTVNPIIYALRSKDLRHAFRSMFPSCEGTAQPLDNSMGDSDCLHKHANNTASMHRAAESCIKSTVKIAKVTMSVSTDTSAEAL
Description: The tissue obtained from the brain of SD rats was homogenized with a Dounce homogenate system in TME (50 mM Tris, 3 mM MgCl2 and 1 mM EDTA, pH 7.4) at 4° C., and the homogenate was centrifuged at 48,000 g for 30 min. at 4° C. The pellet was resuspended in 5 ml of TME and the suspension was divided into aliquots and stored at −70° C. until its use in the following assay.
The tissue concentrations were determined by Bradford protein analysis, and 148 μl of brain tissue of the required concentration was added to the plate. The plate was covered and placed in a 30° C. incubator for 60 min, and then transformed on GF/B filtermat pretreated in polyethylenimine (PEI) using a cell harvester. Each filter was washed five times and dried at 60° C. for 1 hr. Then, the degree of radioactivity retained by the filter was measured using Wallac Microbeta™ (PerkinElmer Life Sciences, Inc., Massachusetts, U.S.A.) and the activity of the compound for inhibiting CB1 receptor was determined therefrom.

As for `Cc1c(C(=O)NCNC(=O)C2CCCCC2)nn(-c2ccc(Cl)cc2Cl)c1-c1ccc(Cl)cc1` [Example 35, 5-(4-Chlorophenyl)-N-(cyclohexanecarboxamidomethyl)-1-(2,4-dichlorophenyl)-4-methyl-1H-pyrazole-3-carboxamide], the IC50 was 49.2 nM.
In the case of `CCCC(=O)NCNC(=O)c1nn(-c2ccc(Cl)cc2Cl)c(-c2ccc(Cl)cc2)c1C` [Example 36, N-(Butyramidomethyl)-5-(4-chlorophenyl)-1-(2,4-dichlorophenyl)-4-methyl-1H-pyrazole-3-carboxamide] it was 905 nM; in that of `Cc1c(C(=O)NCNC(=O)C(C)C)nn(-c2ccc(Cl)cc2Cl)c1-c1ccc(Cl)cc1` [Example 37, 5-(4-Chlorophenyl)-1-(2,4-dichlorophenyl)-N-(isobutyramidomethyl)-4-methyl-1H-pyrazole-3-carboxamide], 951 nM; in that of `Cc1c(C(=O)NCNC(=O)C2CCCCCC2)nn(-c2ccc(Cl)cc2Cl)c1-c1ccc(Cl)cc1` [Example 38, 5-(4-Chlorophenyl)-N-(cycloheptanecarboxamidomethyl)-1-(2,4-dichlorophenyl)-4-methyl-1H-pyrazole-3-carboxamide], 75.6 nM.
In the case of `Cc1c(C(=O)NCNC(=O)CC2CCCCC2)nn(-c2ccc(Cl)cc2Cl)c1-c1ccc(Cl)cc1` [Example 39, 5-(4-Chlorophenyl)-N-((2-cyclohexylacetamido)methyl)-1-(2,4-dichlorophenyl)-4-methyl-1H-pyrazole-3-carboxamide] it was 46.5 nM; in that of `Cc1c(C(=O)NCNC(=O)C2CCCC(C)C2)nn(-c2ccc(Cl)cc2Cl)c1-c1ccc(Cl)cc1` (stereo not shown) [Example 40, 5-(4-Chlorophenyl)-1-(2,4-dichlorophenyl)-4-methyl-N-((3-methylcyclohexanecarboxamido)methyl)-1H-pyrazole-3-carboxamide], 102 nM.
In the case of `Cc1c(C(=O)NCNC(=O)CC2CCCC2)nn(-c2ccc(Cl)cc2Cl)c1-c1ccc(Cl)cc1` [Example 41, 5-(4-Chlorophenyl)-N-((2-cyclopentylacetamido)methyl)-1-(2,4-dichlorophenyl)-4-methyl-1H-pyrazole-3-carboxamide] it was 138 nM.
